Earlier results on five compounds are cited in PMC4791274, “Cerdulatinib, a novel dual SYK/JAK kinase inhibitor, has broad anti-tumor activity in both ABC and GCB types of diffuse large B cell lymphoma” (Oncotarget, 2015).

In one series the test system is R/R patients (DLBCL). Details: method as in PMID 17389337. The following applies: number of patients, in 55 R/R patients; cited from earlier work.
The test system of the next series is DLBCL patients. To be noted: available clinical data; cited from earlier work.
In another series the test system is LY3 cell line. Details: method as in PMID 22025527. The following applies: cited from earlier work.
The next series concerns DHL2 cell line. The arrangement: method as in PMID 22025527. The following applies: cited from earlier work.
In the next series the test system is LY4 cell line. The arrangement: method as in PMID 22025527. The following applies: LY4, lacks surface immunoglobulins; cited from earlier work.
The subject of a further series is DLBCL cells. The following applies: cited from earlier work.
In series [1] the test system is relapsed/refractory (R/R) DLBCL patients. Details: method as in PMID 19965662. The following applies: 5 of 23 R/R DLBCL patients, phase I/II; cited from earlier work.
Another series concerns R/R DLBCL. Details: method as in PMID 26193343. The following applies: phase II, 80 R/R DLBCL; cited from earlier work.

The structures appear in SMILES notation.

Take `Cn1cc(C2=C(c3cn(C4CCN(Cc5ccccn5)CC4)c4ccccc34)C(=O)NC2=O)c2ccccc21` [Enzastaurin]: in the series on R/R patients (DLBCL), the complete responses was 3 and the stable disease was 1. Further, in the series on DLBCL patients, the “fraction of DLBCL patients in whom active” value was at most 20%.

Consider `Cc1cccc(Nc2nc(N[C@@H]3CCCC[C@@H]3N)ncc2C(N)=O)c1` [PRT060318], for which the “sensitivity to SYK selective inhibitor” value with LY3 cell line and in the series with DHL2 cell line was “insensitive” throughout. For the same compound, in the series on LY4 cell line, the “sensitivity to selective SYK inhibition” value was “resistant”. The “impact on cell viability” value with DLBCL cells is recorded as “minimal impact on cell viability”.

`Cc1nc(Nc2ncc(C(=O)Nc3c(C)cccc3Cl)s2)cc(N2CCN(CCO)CC2)n1` [dasatinib]: in the series with DLBCL cells, the “impact on cell viability” value is given as “minimal impact on cell viability”.

In the case of `COc1cc(Nc2ncc(F)c(Nc3ccc4c(n3)N(COP(=O)(O)O)C(=O)C(C)(C)O4)n2)cc(OC)c1OC` [Fostamatinib], in series [1], the objective response is on record as 22%. Further, the “fraction of DLBCL patients in whom active” value with DLBCL patients is at most 20%.

In the case of `C=CC(=O)N1CCC[C@@H](n2nc(-c3ccc(Oc4ccccc4)cc3)c3c(N)ncnc32)C1` [ibrutinib], in the series with R/R DLBCL, the “response rate of all DLBCL tumors” value is on record as 19%; the “responsive tumors, ABC subtype” value is 37%; the “responsive tumors, GCB subtype” value is listed as 5%.
